Reference: paper PMC10495264 (Nature Cell Biology, 2023)
Where “and” joins values, the source holds several entries; their conditions need not be identical. Identical values can stand only once.

Assays:
mTORC1 [1] = assay: mTORC1 activity in mouse embryonic fibroblasts (MEFs), p-S6K^T389/S6K immunoblot; format: cell-based
ERK1/2 = ERK1/2 phosphorylation immunoblot; format: cell-based, human; settings: ED Fig. 5k; relative to DMSO
Procedure: (§1) For standard SDS–PAGE and immunoblotting experiments, cells from a well of a 12-well plate were lysed in 250 μl of ice-cold Triton lysis buffer (50 mM Tris pH 7.5, 1% Triton X-100, 150 mM NaCl, 50 mM NaF, 2 mM Na-vanadate and 0.011 g ml^−1 β-glycerophosphate) supplemented with 1×PhosSTOP phosphatase inhibitors (cat. no. 4906837001, Roche) and 1×cOmplete protease inhibitors (cat. no. 11836153001, Roche) for 10 min on ice. The samples were clarified by centrifugation (20,000g, 15 min, 4 °C) and the supernatants were boiled in 1×SDS sample buffer (5×SDS sample buffer: 350 mM Tris–HCl pH 6.8, 30% glycerol, 600 mM DTT, 12.8% SDS and 0.12% bromophenol blue). The band intensities were quantified using the ImageJ software.
(§2) Data in graphs are shown as the mean ± s.e.m. *P < 0.05, **P < 0.005. Source numerical data and unprocessed blots are provided. Source data

mTORC1 [2] = assay: mTORC1 activity in U2OS cells, immunoblot; format: cell-based, human; settings: Fasnall 25 μM 30 min; cerulenin 50 μM 2 or 4 h
AMPK = AMPK and ACC1 phosphorylation immunoblot; format: cell-based, human; settings: relative to DMSO
Procedure: as §1, §2

mTORC1 [3] = assay: mTORC1 activity in HEK293T cells (WT, AMPKα1/2 KO, DEPDC5 and RagA/B triple KO), p-S6K^T389/S6K immunoblot; format: cell-based, human
Procedure: Source numerical data and unprocessed blots are provided. Source data
as §1
Data in graphs are shown as the mean ± s.e.m. *P < 0.05, **P < 0.005, ***P < 0.0005. Source numerical data and unprocessed blots are provided. Source data

mTORC2 = mTORC2 activity in HEK293FT cells, p-AKT^S473/AKT immunoblot; format: cell-based, human
Procedure: Phosphorylation of Ypk1 was used as the TORC2 readout. Phosphorylation of Snf1 was used as the AMPK activation readout. Total Snf1 was detected with an antibody to a histidine (His) stretch in Snf1. […] Source numerical data and unprocessed blots are provided. Source data
(§3) Amino-acid-starvation experiments were carried out as described before[42],[43]. […] For the lipid depletion experiments, cells were cultured in medium containing 10% charcoal-stripped FBS (A3382101, Thermo Fisher Scientific), instead of full FBS, for 24 h before treatments with FASN inhibitors were performed. For FA supplementation, each FA was first conjugated to 10% FA-free BSA (fraction V; cat. no. 10735086001, Roche) for 1 h at 50 °C in a 50:50 volumetric ratio. The BSA-conjugated C16:0, C16:1, C18:1 and C18:2 FAs (100 μM) were then added to the media both 16 h previous to and at the start of the treatment with FASN inhibitors.
as §1

mTORC1 [4] = assay: mTORC1 activity in HEK293FT cells (WT and knockout lines), phosphorylation of S6K, 4E-BP1, Grb10, TFEB by immunoblot; format: cell-based, human; settings: for p-S6K(T389)/S6K: Replicates 1-3, DMSO = 1 (ED Fig. 8h)
Procedure: Data represent the median fluorescence intensity of OPP Alexa Fluor 488; n = 6 biological replicates from two independent experiments. b,c,e,g,i,k,l, Data are the mean ± s.e.m. *P < 0.05, **P < 0.005, ***P < 0.0005. […] Source numerical data and unprocessed blots are provided. Source data
as §3, §1

[5] = test system: mTOR lysosomal localization; assay: Co-localization of mTOR with LAMP2, confocal microscopy; format: cell-based, human
[6] = Fasnall 25 μM 30 min, cerulenin 50 μM 4 h

## Cc1sc2ncnc(NC3CCN(Cc4ccccc4)C3)c2c1C (stereo not shown) [Fasnall]
mTORC1 [1]; ED Fig. 4b, relative to DMSO
  p-S6K(T389)/S6K, Mean: 0.4247
mTORC1 [1]; Fasnall 25 μM 30 min, cerulenin 50 μM 2 or 4 h
  mTORC1 activity in MEFs: downregulates
ERK1/2
  p-ERK(T202/Y204)/ERK, Mean: 0.525
mTORC1 [2]
  mTORC1 activity in U2OS: downregulates
AMPK; ED Fig. 5b
  p-AMPK(T172)/AMPK, Mean: 4.063
AMPK; ED Fig. 5c
  p-ACC1(S79)/ACC1, Mean: 2.603
mTORC1 [3]; ED Fig. 7b, AMPKa1/2 KO, 30', relative to AMPKa1/2 KO DMSO
  p-S6K(T389)/S6K, Mean: 0.6838
mTORC1 [3]; ED Fig. 7b, AMPKa1/2 KO, 60', relative to AMPKa1/2 KO DMSO
  p-S6K(T389)/S6K, Mean: 0.7858
mTORC1 [3]; ED Fig. 7b, WT, 30', relative to WT DMSO
  p-S6K(T389)/S6K, Mean: 0.4433
mTORC1 [3]; ED Fig. 7b, WT, 60', relative to WT DMSO
  p-S6K(T389)/S6K, Mean: 0.4902
mTORC1 [3]; ED Fig. 7g, DEPDC5+RagA/B KO, 30', relative to DEPDC5+RagA/B KO DMSO
  p-S6K(T389)/S6K, Mean: 0.2954
mTORC1 [3]; ED Fig. 7g, DEPDC5+RagA/B KO, 60', relative to DEPDC5+RagA/B KO DMSO
  p-S6K(T389)/S6K, Mean: 0.2391
mTORC1 [3]; ED Fig. 7g, WT, 30', relative to WT DMSO
  p-S6K(T389)/S6K, Mean: 0.4545
mTORC1 [3]; ED Fig. 7g, WT, 60', relative to WT DMSO
  p-S6K(T389)/S6K, Mean: 0.4895
mTORC2; 25 μM Fasnall 30 min, DMSO = 1, n = 4, Fig. 3b
  p-AKT(S473)/AKT, Mean: 1.017
mTORC2; [6]
  phosphorylation of Akt (mTORC2 substrate): did not significantly alter
mTORC1 [4]; ED Fig. 3b, relative to DMSO
  p-Grb10(S476)/Grb10, Mean: 0.4881
mTORC1 [4]; ED Fig. 3c, relative to DMSO
  p-TFEB(S211)/TFEB, Mean: 0.3867
mTORC1 [4]; ED Fig. 4n, relative to DMSO
  p-S6K(T389)/S6K, Mean: 0.2327
mTORC1 [4]; [6]
  mTORC1 activity towards Grb10 and TFEB (cerulenin: also 4E-BP1): downregulates
mTORC1 [4]; HEK293FT cells, Fasnall, cerulenin or siFASN
  mTORC1 activity (phosphorylation of S6K, 4E-BP1, Grb10 and TFEB): suppressed
mTORC1 [4]; HEK293FT expressing FLAG-ACC1 S79A, Fasnall 25 μM, 30 min, respective DMSO = 1, Fig. 4b
  p-S6K(T389)/S6K, Mean: 0.3193
mTORC1 [4]; HEK293FT expressing FLAG-ACC1 WT, Fasnall 25 μM, 30 min, respective DMSO = 1, Fig. 4b
  p-S6K(T389)/S6K, Mean: 0.6407
mTORC1 [4]; HEK293FT expressing FLAG-Luc, Fasnall 25 μM, 30 min, respective DMSO = 1, Fig. 4b
  p-S6K(T389)/S6K, Mean: 0.6832
mTORC1 [4]; HEK293FT, 25 μM Fasnall 30', DMSO = 1, n = 6, Fig. 2g
  p-S6K(T389)/S6K, Mean: 0.526
mTORC1 [4]; HEK293FT, 25 μM Fasnall 60', DMSO = 1, n = 6, Fig. 2g
  p-S6K(T389)/S6K, Mean: 0.5445
mTORC1 [4]; Luc-expressing cells, Fasnall 30', DMSO = 1 (ED Fig. 8h)
  p-S6K(T389)/S6K, Mean: 0.4328
mTORC1 [4]; Luc-expressing cells, Fasnall 30'
  p-S6K(T389)/S6K: 0.4633 and 0.548 and 0.2872
mTORC1 [4]; Luc-expressing cells, Fasnall 60', DMSO = 1 (ED Fig. 8h)
  p-S6K(T389)/S6K, Mean: 0.3861
mTORC1 [4]; Luc-expressing cells, Fasnall 60'
  p-S6K(T389)/S6K: 0.4934 and 0.1817 and 0.4832
mTORC1 [4]; RagA(QL)/C(SN)-expressing cells, Fasnall 30', DMSO = 1 (ED Fig. 8h)
  p-S6K(T389)/S6K, Mean: 0.4794
mTORC1 [4]; RagA(QL)/C(SN)-expressing cells, Fasnall 30'
  p-S6K(T389)/S6K: 0.6415 and 0.4768 and 0.3198
mTORC1 [4]; RagA(QL)/C(SN)-expressing cells, Fasnall 60', DMSO = 1 (ED Fig. 8h)
  p-S6K(T389)/S6K, Mean: 0.4741
mTORC1 [4]; RagA(QL)/C(SN)-expressing cells, Fasnall 60'
  p-S6K(T389)/S6K: 0.6662 and 0.3714 and 0.3847
mTORC1 [4]; RagA/B KO HEK293FT, 25 μM Fasnall 30', respective DMSO = 1, n = 4, Fig. 5i
  p-S6K(T389)/S6K, Mean: 0.306
mTORC1 [4]; RagA/B KO HEK293FT, 25 μM Fasnall 60', respective DMSO = 1, n = 4, Fig. 5i
  p-S6K(T389)/S6K, Mean: 0.3694
mTORC1 [4]; TSC1 KO HEK293FT, 25 μM Fasnall 30 min, respective DMSO = 1, n = 6, Fig. 5n
  p-S6K(T389)/S6K, Mean: 0.4771
mTORC1 [4]; WT HEK293FT, 25 μM Fasnall 30', respective DMSO = 1, n = 4, Fig. 5i
  p-S6K(T389)/S6K, Mean: 0.3695
mTORC1 [4]; WT HEK293FT, 25 μM Fasnall 60', respective DMSO = 1, n = 4, Fig. 5i
  p-S6K(T389)/S6K, Mean: 0.3619
mTORC1 [4]; WT HEK293FT, 25 μM Fasnall 30 min, respective DMSO = 1, n = 6, Fig. 5n
  p-S6K(T389)/S6K, Mean: 0.3275
[5]; Fasnall 30', Replicate 2, individual cells (ED Fig. 8b)
  mTOR/LAMP2 colocalization (Manders' coefficient): 0.475 and 0.399 and 0.259 and 0.343 and 0.372 and 0.439 and 0.359 and 0.413 and 0.403 and 0.14 and 0.1 and 0.291 and 0.207 and 0.085 and 0.364 and 0.524 and 0.395 and 0.22 and 0.281 and 0.339 and 0.627 and 0.352 and 0.483 and 0.276 and 0.195 and 0.511 and 0.191
[5]; Fasnall 30', Replicate 4, individual cells (ED Fig. 8b)
  mTOR/LAMP2 colocalization (Manders' coefficient): 0.446 and 0.648 and 0.366 and 0.481 and 0.313 and 0.232 and 0.1 and 0.151 and 0.321 and 0.261 and 0.549 and 0.486 and 0.59 and 0.448 and 0.288 and 0.329 and 0.377 and 0.426 and 0.197 and 0.422 and 0.449 and 0.465 and 0.297 and 0.542 and 0.319 and 0.458 and 0.212 and 0.351 and 0.306
[5]; Fasnall 30', mean of pooled individual cells (ED Fig. 8b), DMSO mean 0.568258
  mTOR/LAMP2 colocalization (Manders' coefficient), Mean: 0.3868
[5]; Fasnall 60', Replicate 2, individual cells (ED Fig. 8b)
  mTOR/LAMP2 colocalization (Manders' coefficient): 0.202 and 0.487 and 0.43 and 0.287 and 0.399 and 0.342 and 0.295 and 0.326 and 0.268 and 0.605 and 0.328 and 0.333 and 0.315 and 0.375 and 0.636 and 0.498 and 0.603 and 0.513 and 0.443
[5]; Fasnall 60', Replicate 4, individual cells (ED Fig. 8b)
  mTOR/LAMP2 colocalization (Manders' coefficient): 0.425 and 0.202 and 0.399 and 0.49 and 0.499 and 0.282 and 0.303 and 0.344 and 0.361 and 0.405 and 0.518 and 0.461 and 0.434 and 0.504 and 0.271 and 0.298 and 0.295 and 0.41 and 0.416 and 0.567 and 0.365 and 0.689 and 0.431 and 0.398 and 0.488
[5]; Fasnall 60', mean of pooled individual cells (ED Fig. 8b), DMSO mean 0.568258
  mTOR/LAMP2 colocalization (Manders' coefficient), Mean: 0.4158
[5]; HEK293FT, 25 μM Fasnall or 50 μM cerulenin
  mTOR localization at lysosomes (co-localization with LAMP2): significant dissociation
[5]; Luc-expressing cells, Fasnall 30' (ED Fig. 8j), Luc DMSO mean 0.429851
  mTOR/LAMP2 colocalization (Manders' coefficient), Mean: 0.3242
[5]; RagA(QL)/C(SN)-expressing cells, Fasnall 30' (ED Fig. 8j), DMSO mean 0.528308
  mTOR/LAMP2 colocalization (Manders' coefficient), Mean: 0.4688
